{"source": "ChEMBL document CHEMBL4346657", "about": "“Anticancer activity, dual prooxidant/antioxidant effect and apoptosis induction profile of new bichalcophene-5-carboxamidines” (Eur J Med Chem, 2019)", "key": {"TK-10": {"system": "TK-10", "assay": "Antiproliferative activity against human TK10 cells assessed as growth inhibition after 48 hrs by sulforhodamine B assay", "type": "functional", "details": "TK-10, 48 h"}, "MCF7": {"system": "MCF7", "assay": "Antiproliferative activity against human MCF7 cells assessed as growth inhibition after 48 hrs by sulforhodamine B assay", "type": "functional", "details": "MCF7, 48 h"}, "[1]": {"system": "Panel NCI-60 (60 carcinoma cell lines)", "assay": "Antiproliferative activity against human NCI60 cells assessed as growth inhibition at 10 uM after 48 hrs by sulforhodamine B assay", "type": "functional", "details": "read-out: GI"}, "DU-145": {"system": "DU-145", "assay": "Antiproliferative activity against human DU145 cells assessed as growth inhibition after 48 hrs by sulforhodamine B assay", "type": "functional", "details": "DU-145, 48 h"}, "SK-OV-3": {"system": "SK-OV-3", "assay": "Antiproliferative activity against human SKOV3 cells assessed as growth inhibition after 48 hrs by sulforhodamine B assay", "type": "functional", "details": "SK-OV-3, 48 h"}, "OVCAR-8": {"system": "OVCAR-8", "assay": "Antiproliferative activity against human OVCAR8 cells assessed as growth inhibition after 48 hrs by sulforhodamine B assay", "type": "functional", "details": "OVCAR-8, 48 h"}, "OVCAR-4": {"system": "OVCAR-4", "assay": "Antiproliferative activity against human OVCAR4 cells assessed as growth inhibition after 48 hrs by sulforhodamine B assay", "type": "functional", "details": "OVCAR-4, 48 h"}, "UACC-62": {"system": "UACC-62", "assay": "Antiproliferative activity against human UACC62 cells assessed as growth inhibition after 48 hrs by sulforhodamine B assay", "type": "functional", "details": "UACC-62, 48 h"}, "UACC-257": {"system": "UACC-257", "assay": "Antiproliferative activity against human UACC257 cells assessed as growth inhibition after 48 hrs by sulforhodamine B assay", "type": "functional", "details": "UACC-257, 48 h"}, "Malme-3M": {"system": "Malme-3M", "assay": "Antiproliferative activity against human MALME-3M cells assessed as growth inhibition after 48 hrs by sulforhodamine B assay", "type": "functional"}, "LOX IMVI": {"system": "LOX IMVI", "assay": "Antiproliferative activity against human LOXIMVI cells assessed as growth inhibition after 48 hrs by sulforhodamine B assay", "type": "functional"}, "U-251": {"system": "U-251", "assay": "Antiproliferative activity against human U251 cells assessed as growth inhibition after 48 hrs by sulforhodamine B assay", "type": "functional", "details": "U-251, 48 h"}, "SF-539": {"system": "SF-539", "assay": "Antiproliferative activity against human SF539 cells assessed as growth inhibition after 48 hrs by sulforhodamine B assay", "type": "functional", "details": "SF-539, 48 h"}, "SF-268": {"system": "SF-268", "assay": "Antiproliferative activity against human SF268 cells assessed as growth inhibition after 48 hrs by sulforhodamine B assay", "type": "functional", "details": "SF-268, 48 h"}, "SW-620": {"system": "SW-620", "assay": "Antiproliferative activity against human SW620 cells assessed as growth inhibition after 48 hrs by sulforhodamine B assay", "type": "functional", "details": "SW-620, 48 h"}, "HT-29": {"system": "HT-29", "assay": "Antiproliferative activity against human HT-29 cells assessed as growth inhibition after 48 hrs by sulforhodamine B assay", "type": "functional", "details": "HT-29, 48 h"}, "HCT-116 [2]": {"system": "HCT-116", "assay": "Antiproliferative activity against human HCT116 cells assessed as growth inhibition after 48 hrs by sulforhodamine B assay", "type": "functional", "details": "HCT-116, 48 h"}, "HCC 2998": {"system": "HCC 2998", "assay": "Antiproliferative activity against human HCC2998 cells assessed as growth inhibition after 48 hrs by sulforhodamine B assay", "type": "functional", "details": "HCC 2998, 48 h"}, "NCI-H23": {"system": "NCI-H23", "assay": "Antiproliferative activity against human NCI-H23 cells assessed as growth inhibition after 48 hrs by sulforhodamine B assay", "type": "functional", "details": "NCI-H23, 48 h"}, "HOP-62": {"system": "HOP-62", "assay": "Antiproliferative activity against human HOP62 cells assessed as growth inhibition after 48 hrs by sulforhodamine B assay", "type": "functional", "details": "HOP-62, 48 h"}, "A549": {"system": "A549", "assay": "Antiproliferative activity against human A549/ATCC cells assessed as growth inhibition after 48 hrs by sulforhodamine B assay", "type": "functional", "details": "A549, 48 h"}, "SR": {"system": "SR", "assay": "Antiproliferative activity against human SR cells assessed as growth inhibition after 48 hrs by sulforhodamine B assay", "type": "functional"}, "RPMI-8226": {"system": "RPMI-8226", "assay": "Antiproliferative activity against human RPMI8226 cells assessed as growth inhibition after 48 hrs by sulforhodamine B assay", "type": "functional", "details": "RPMI-8226, 48 h"}, "MOLT-4": {"system": "MOLT-4", "assay": "Antiproliferative activity against human MOLT4 cells assessed as growth inhibition after 48 hrs by sulforhodamine B assay", "type": "functional", "details": "MOLT-4, 48 h"}, "T47D": {"system": "T47D", "assay": "Antiproliferative activity against human T47D cells assessed as growth inhibition after 48 hrs by sulforhodamine B assay", "type": "functional"}, "MDA-MB-468": {"system": "MDA-MB-468", "assay": "Antiproliferative activity against human MDA-MB-468 cells assessed as growth inhibition after 48 hrs by sulforhodamine B assay", "type": "functional", "details": "MDA-MB-468, 48 h"}, "[3]": {"assay": "Haemolytic activity in human erythrocytes assessed as induction of hemolysis at 10 mM after 30 mins relative to H202", "type": "cell-based, Erythrocyte", "details": "read-out: Activity"}, "[4]": {"assay": "Haemolytic activity in human erythrocytes assessed as induction of hemolysis at 2.5 mM after 30 mins relative to H202", "type": "cell-based, Erythrocyte", "details": "erythrocytes, read-out: Activity"}, "[5]": {"assay": "Haemolytic activity in human erythrocytes assessed as induction of hemolysis at 1.25 mM after 30 mins relative to H202", "type": "cell-based, Erythrocyte", "details": "erythrocytes, read-out: Activity"}, "[6]": {"assay": "Antioxidant activity assessed as DPPH radical scavenging activity incubated in dark for 30 mins by spectrophotometric method relative to control", "type": "functional", "design": "concentration or dose not given beside the values"}, "[7]": {"assay": "Antioxidant activity assessed as DPPH radical scavenging activity incubated in dark for 30 mins by spectrophotometric method relative to ascorbic acid", "type": "functional"}, "[8]": {"assay": "Antioxidant activity assessed as ABTS radical scavenging activity by spectrophotometric analysis relative to control", "type": "functional", "design": "concentration or dose not given beside the values", "details": "dose or concentration not given here"}, "[9]": {"assay": "Antioxidant activity assessed as hydroxyl radical scavenging activity after 1 hr by salicylic acid-based Fenton reaction assay", "type": "functional"}, "[10]": {"assay": "Pro-oxidant activity assessed as increase in bleomycin-Fe2+ induced calf thymus DNA damage at 2 mM after 1 hr by thiobarbituric acid based absorbance analysis"}, "HCT-116 [11]": {"system": "HCT-116", "assay": "Induction of apoptosis in human HCT116 cells assessed as increase in caspase 3 mRNA expression at 100 nM after 6 hrs hrs by SYBR green dye-based qRT-PCR analysis relative to control", "type": "functional"}, "HCT-116 [12]": {"system": "HCT-116", "assay": "Induction of apoptosis in human HCT116 cells assessed as increase in caspase 9 mRNA expression at 100 nM after 6 hrs hrs by SYBR green dye-based qRT-PCR analysis relative to control", "type": "functional"}}, "note": "Active and inactive are the calls of the source. The calls are words filed in the database; no cut-off is given here.", "data": [{"molecule": "N=C(N)c1ccc(-c2ccc(-c3ccc(Cl)cc3)o2)o1", "values": [{"measurement": "GI50", "setting": "TK-10", "result": 2070, "unit": "nM"}, {"measurement": "GI50", "setting": "MCF7", "result": 1270, "unit": "nM"}, {"measurement": "inhibition of growth at 10 µM", "setting": "[1]", "result": -2.02, "unit": "%"}, {"measurement": "GI50", "setting": "DU-145", "result": 1750, "unit": "nM"}, {"measurement": "GI50", "setting": "SK-OV-3", "result": 1790, "unit": "nM"}, {"measurement": "GI50", "setting": "OVCAR-8", "result": 2020, "unit": "nM"}, {"measurement": "GI50", "setting": "OVCAR-4", "result": 1800, "unit": "nM"}, {"measurement": "GI50", "setting": "UACC-62", "result": 1890, "unit": "nM"}, {"measurement": "GI50", "setting": "UACC-257", "result": 1990, "unit": "nM"}, {"measurement": "GI50", "setting": "Malme-3M", "result": 1910, "unit": "nM"}, {"measurement": "GI50", "setting": "LOX IMVI", "result": 1760, "unit": "nM"}, {"measurement": "GI50", "setting": "U-251", "result": 1880, "unit": "nM"}, {"measurement": "GI50", "setting": "SF-539", "result": 1710, "unit": "nM"}, {"measurement": "GI50", "setting": "SF-268", "result": 1750, "unit": "nM"}, {"measurement": "GI50", "setting": "SW-620", "result": 1700, "unit": "nM"}, {"measurement": "GI50", "setting": "HT-29", "result": 1680, "unit": "nM"}, {"measurement": "GI50", "setting": "HCT-116 [2]", "result": 1900, "unit": "nM"}, {"measurement": "GI50", "setting": "HCC 2998", "result": 1960, "unit": "nM"}, {"measurement": "GI50", "setting": "NCI-H23", "result": 1690, "unit": "nM"}, {"measurement": "GI50", "setting": "HOP-62", "result": 1650, "unit": "nM"}, {"measurement": "GI50", "setting": "A549", "result": 1980, "unit": "nM"}, {"measurement": "GI50", "setting": "SR", "result": 1630, "unit": "nM"}, {"measurement": "GI50", "setting": "RPMI-8226", "result": 2120, "unit": "nM"}, {"measurement": "GI50", "setting": "MOLT-4", "result": 1660, "unit": "nM"}, {"measurement": "GI50", "setting": "T47D", "result": 1710, "unit": "nM"}, {"measurement": "GI50", "setting": "MDA-MB-468", "result": 2190, "unit": "nM"}, {"measurement": "hemolysis at 0.5 h, 10000 µM", "setting": "[3]", "result": 97.3, "unit": "%"}, {"measurement": "hemolysis at 0.5 h, 2500 µM", "setting": "[4]", "result": 41.3, "unit": "%"}, {"measurement": "hemolysis at 0.5 h, 1250 µM", "setting": "[5]", "result": 14, "unit": "%"}, {"measurement": "inhibition", "setting": "[6]", "result": 17.5, "unit": "%"}, {"measurement": "fold change (FC)", "setting": "[7]", "result": 0.2}, {"measurement": "inhibition", "setting": "[8]", "result": 20.4, "unit": "%"}, {"measurement": "Activity", "setting": "[9]", "result": "Active"}, {"measurement": "Activity", "setting": "[10]", "result": "Active"}, {"measurement": "fold change (FC)", "setting": "HCT-116 [11]", "result": 3.55}, {"measurement": "fold change (FC)", "setting": "HCT-116 [12]", "result": 4}]}]}
